Results: ChEMBL document CHEMBL5120909, “Reshaping an Acyclic Nucleoside Phosphonate into a Selective Anti-hepatitis B Virus Compound” (J Med Chem, 2022)

Tests used:
HepG2 2.2.15 [1] = assay: Cytotoxicity against human HepG2.2.15 cells assessed as reduction in cell viability; format: functional
Hepatitis B virus [2] = assay: Antiviral activity against wild type HBV infected in human HepG2 2.2.15 cells assessed as reduction in viral replication pre incubated for 3 days followed by replacement with fresh compounds for another 3 days prior to pronase treatment by RT-qPCR analysis; format: functional, organism-based, HepG2.2.15; details: for EC50: HepG2.2.15; for EC90: HepG2.2.15, 144 h, time 6 day
Human betaherpesvirus 5 [3] = assay: Antiviral activity against HCMV AD-169 infected in HEL cells assessed as reduction in virus plaque formation; format: functional, organism-based; details: Human betaherpesvirus 5, AD-169, HEL
[4] = (§1) Selectivity index, ratio of CC50 for cytotoxicity against human MT4 cells assessed as reduction in cell viability by MTT assay to EC50 for anti-HIV activity against wild type HIV-2 ROD infected in human MT4 cells assessed as inhibition of HIV-induced cytopathic effect measured after 5 days by MTT assay; format: toxicity, cell-based; details: read-out: Ratio CC50/EC50
[5] = Cytotoxicity against human MT4 cells assessed as reduction in cell viability by MTT assay; format: toxicity, cell-based
Human betaherpesvirus 5 [6] = assay: Antiviral activity against HCMV Davis infected in HEL cells assessed as reduction in virus plaque formation; format: functional, organism-based; details: Human betaherpesvirus 5, Davis
[7] = Cytotoxicity against human HEL cells assessed as change in cell morphology measured after 3 days […]; format: toxicity, cell-based; details: time 3 day
[8] = tested on: Human immunodeficiency virus 2; assay: Anti-HIV activity against wild type HIV-2 ROD infected in human MT4 cells assessed as inhibition of HIV-induced cytopathic effect measured after 5 days by MTT assay; format: functional, organism-based; details: Human immunodeficiency virus 2, ROD, MT4, 120 h
Human alphaherpesvirus 3 [9] = assay: Antiviral activity against VZV TK+ infected in HEL cells assessed as reduction in virus plaque formation; format: functional, organism-based; details: Human alphaherpesvirus 3, TK+
HepG2 2.2.15 [10] = assay: Cytotoxicity against human HepG2.2.15 cells assessed as reduction in cell viability incubated for 1 to 4 hrs by MTS uptake assay; format: functional; details: time 1-4 hrs
Human alphaherpesvirus 3 [11] = assay: Antiviral activity against VZV TK- infected in HEL cells assessed as reduction in virus plaque formation; format: functional, organism-based; details: Human alphaherpesvirus 3, TK-
[12] = tested on: Human immunodeficiency virus 1; assay: Anti-HIV activity against wild type HIV-1 IIIB infected in human MT4 cells assessed as inhibition of HIV-induced cytopathic effect measured after 5 days by MTT assay; format: functional, organism-based; details: Human immunodeficiency virus 1, IIIB, MT4, 120 h
[13] = as §1, with “HIV-1 IIIB” for “HIV-2 ROD”; format: toxicity, cell-based; details: read-out: Ratio CC50/EC50
[14] = Cytotoxicity against human HEL cells assessed as reduction in cell growth measured after 3 days by coulter counting method; format: toxicity, cell-based; details: time 3 day
Human betaherpesvirus 5 [15] = assay: Antiviral activity against HCMV AD-169 infected in HFF cells assessed as reduction in viral replication measured after 14 days; format: functional, organism-based; details: Human betaherpesvirus 5, AD-169, HFF, 336 h; for EC90: time 14 day
[16] = Cytotoxicity against human HFF cells infected with HCMV AD-169 virus assessed as reduction in cell viability by cell titer-glo assay; format: toxicity, cell-based
Human alphaherpesvirus 3 [17] = assay: Antiviral activity against VZV Ellen infected in HFF cells assessed as reduction in viral replication measured after 14 days; format: functional, organism-based; details: Human alphaherpesvirus 3, Ellen, 336 h; for EC90: time 14 day
[18] = Cytotoxicity against human HFF cells infected with VZV Ellen virus assessed as reduction in cell viability by cell titer-glo assay; format: toxicity, cell-based
[19] = (§2) Selectivity index, ratio of CC50 for cytotoxicity against human HFF cells infected with HCMV AD-169 virus assessed as reduction in cell viability by cell titer-glo assay to EC50 for antiviral activity against HCMV AD-169 infected in HFF cells assessed as inhibition of virus-induced cytopathic effect measured after 14 days; format: toxicity, cell-based; details: read-out: Ratio CC50/EC50
HepG2 2.2.15 [20] = assay: Cytotoxicity against human HepG2.2.15 cells assessed as reduction in cell viability by neutral red uptake assay; format: functional
[21] = as §2, with “VZV Ellen” for “HCMV AD-169”; format: toxicity, cell-based; details: read-out: Ratio CC50/EC50
Hepatitis B virus [22] = assay: Antiviral activity against wild type HBV infected in human HepG2 2.2.15 cells assessed as reduction in viral replication by DNA HYB (Vision)/neutral red (Tox) assay; format: functional, organism-based; details: HepG2.2.15
Hepatitis B virus [23] = assay: Antiviral activity against wild type HBV infected in human HepG2 2.2.15 cells assessed as reduction in viral replication by DNA HYB (RI)/neutral red (Tox) assay; format: functional, organism-based; details: HepG2.2.15
[24] = Selectivity index, ratio of CC50 cytotoxicity against human HepG2.2.15 cells assessed as reduction in cell viability to EC50 for antiviral activity against wild type HBV infected in human HepG2 2.2.15 cells assessed as reduction in viral replication by DNA HYB (RI)/neutral red (Tox) assay; format: toxicity, cell-based; details: read-out: Selectivity Index
[25] = Selectivity index, ratio of CC50 cytotoxicity against human HepG2.2.15 cells assessed as reduction in cell viability to EC50 for antiviral activity against wild type HBV infected in human HepG2 2.2.15 cells assessed as reduction in viral replication by DNA HYB (Vision)/neutral red (Tox) assay; format: toxicity, cell-based; details: read-out: Selectivity Index

Structure (SMILES) | CC50 (HepG2 2.2.15 [1]) [µM] | EC50 (Hepatitis B virus [2]) [µM] | EC50 (Human betaherpesvirus 5 [3]) [µM] | selectivity ratio at 120 h [4] | CC50 [5] [µM] | EC50 (Human betaherpesvirus 5 [6]) [µM] | MCC at 72 h [7] [µM] | EC50 [8] [µM] | EC50 (Human alphaherpesvirus 3 [9]) [µM] | EC90 (Hepatitis B virus [2]) [µM] | CC50 (HepG2 2.2.15 [10]) [µM] | EC50 (Human alphaherpesvirus 3 [11]) [µM] | EC50 [12] [µM] | selectivity ratio at 120 h [13] | EC50 (Human betaherpesvirus 5 [15]) [µM] | EC90 (Human betaherpesvirus 5 [15]) [µM] | CC50 [16] [µM] | CC50 (HepG2 2.2.15 [20]) [µM] | further results
C#C[C@@](CO)(Cn1cnc2c(=O)[nH]c(N)nc21)OCP(=O)(N[C@@H](Cc1ccccc1)C(=O)OCCC)N[C@@H](Cc1ccccc1)C(=O)OCCC | > 100 | 0.00927 | – | – | – | – | – | – | – | – | – | – | – | – | – | – | – | – | –
Cc1cn(CC(C)(CO)OCP(=O)(O)O)c(=O)[nH]c1=O (racemic) | – | > 100 | > 324 | 1 | > 406 | > 324 | > 324 | > 406 | > 324 | > 100 | > 100 | 253 | > 406 | 1 | – | – | – | – | –
CC(CO)(Cn1cnc2c(N)ncnc21)OCP(=O)(O)O (racemic) | – | 0.82 | 115 | 1 | > 352 | 315 | > 315 | > 352 | 30.8 | 21.8 | > 100 | 36.9 | > 352 | 1 | – | – | – | – | CC50 at 72 h [14]: 205 µM
C[C@](CO)(Cn1cnc2c(=O)[nH]c(N)nc21)OCP(=O)(O)O | > 100 | 0.335 | – | – | – | – | – | – | – | – | – | – | – | – | – | – | – | – | –
C#C[C@](CO)(Cn1cnc2c(=O)[nH]c(N)nc21)OCP(=O)(O)O | > 100 | 0.497 | – | – | – | – | – | – | – | – | – | – | – | – | – | – | – | – | –
CC(CO)(Cn1ccc(=O)[nH]c1=O)OCP(=O)(O)O (racemic) | – | > 100 | 260 | 1 | > 425 | 186 | > 340 | > 425 | 270 | > 100 | > 100 | 340 | > 425 | 1 | – | – | – | – | –
Nc1nc2c(ncn2COCCO)c(=O)[nH]1 [ACYCLOVIR] | – | – | 2.27 | – | – | 2.08 | > 444 | – | – | – | – | – | – | – | – | – | – | – | CC50 at 72 h [14]: > 444 µM
O=c1[nH]c(=O)n([C@H]2C[C@H](O)[C@@H](CO)O2)cc1/C=C/Br [BRIVUDINE] | – | – | 0.29 | – | – | 0.34 | > 300 | – | 0.07 | – | – | 36.1 | – | – | – | – | – | – | CC50 at 72 h [14]: > 300 µM
C#CC(CO)(Cn1cnc2c(N)ncnc21)OCP(=O)(O)O (racemic) | – | 25 | – | > 21 | > 382 | – | – | 18 | – | 62 | – | – | 26.6 | > 14 | 30 | > 30 | 145 | > 100 | EC50 (Human alphaherpesvirus 3 [17]): > 30 µM; EC90 (Human alphaherpesvirus 3 [17]): > 30 µM; CC50 [18]: 131 µM; selectivity ratio at 336 h [19]: < 5; selectivity ratio at 336 h [21]: < 4
C#CC(CO)(Cn1cc(C)c(=O)[nH]c1=O)OCP(=O)(O)O (racemic) | – | > 100 | – | 1 | > 393 | – | – | > 393 | – | > 100 | – | – | > 393 | 1 | 30 | > 30 | 140 | > 100 | EC50 (Human alphaherpesvirus 3 [17]): 27.1 µM; EC90 (Human alphaherpesvirus 3 [17]): > 30 µM; CC50 [18]: 139 µM; selectivity ratio at 336 h [19]: < 5; selectivity ratio at 336 h [21]: 5
C[C@@](CO)(Cn1cnc2c(=O)[nH]c(N)nc21)OCP(=O)(O)O | > 100 | 0.0423 | – | – | – | – | – | – | – | – | – | – | – | – | – | – | – | – | –
CC(CO)(Cn1ccc(N)nc1=O)OCP(=O)(O)O (racemic) | – | > 100 | 24.9 | 1 | > 426 | 37.3 | > 341 | > 426 | 18.8 | > 100 | > 100 | 45.6 | > 426 | 1 | – | – | – | – | CC50 at 72 h [14]: > 341 µM
C#CC(CO)(Cn1ccc(=O)[nH]c1=O)OCP(=O)(O)O (racemic) | – | 21 | – | 1 | > 411 | – | – | > 411 | – | 77 | – | – | > 411 | 1 | 150 | > 150 | > 150 | > 100 | EC50 (Human alphaherpesvirus 3 [17]): 20.5 µM; EC90 (Human alphaherpesvirus 3 [17]): > 150 µM; CC50 [18]: > 150 µM; selectivity ratio at 336 h [19]: 1; selectivity ratio at 336 h [21]: > 7
Nc1ccn([C@@H]2CS[C@H](CO)O2)c(=O)n1 [LAMIVUDINE] | 2120 | 0.04 | – | > 9 | > 87.2 | – | – | 9.9 | – | 0.13 | > 2 | – | 2.53 | > 24 | – | – | – | 2120 | EC50 (Hepatitis B virus [22]): 0.04 µM; EC90 (Hepatitis B virus [22]): 0.12 µM; EC50 (Hepatitis B virus [23]): 0.13 µM; EC90 (Hepatitis B virus [23]): 0.35 µM; selectivity ratio [24]: 16200; selectivity ratio [25]: 57400
C#CC(CO)(Cn1cnc2c(=O)[nH]c(N)nc21)OCP(=O)(O)O (centres undefined) | > 100 | 0.37 | – | > 287 | > 364 | – | – | 1.28 | – | 0.83 | – | – | 3.73 | > 97 | 14.4 | > 150 | > 150 | > 100 | EC50 (Hepatitis B virus [22]): 0.31 µM; EC90 (Hepatitis B virus [22]): 0.8 µM; EC50 (Hepatitis B virus [23]): 0.54 µM; EC90 (Hepatitis B virus [23]): 1.8 µM; selectivity ratio [24]: > 185; EC50 (Human alphaherpesvirus 3 [17]): 116 µM; EC90 (Human alphaherpesvirus 3 [17]): > 150 µM; selectivity ratio [25]: > 322; CC50 [18]: > 150 µM; selectivity ratio at 336 h [19]: > 10; selectivity ratio at 336 h [21]: > 1
C#C[C@@](CO)(Cn1cnc2c(=O)[nH]c(N)nc21)OCP(=O)(O)O | > 100 | 0.0187 | – | – | – | – | – | – | – | – | – | – | – | – | – | – | – | – | –
C#CC(CO)(Cn1ccc(N)nc1=O)OCP(=O)(O)O (racemic) | – | > 100 | – | 1 | > 412 | – | – | > 412 | – | > 100 | – | – | > 412 | 1 | 30 | > 30 | 132 | > 100 | EC50 (Human alphaherpesvirus 3 [17]): 15.4 µM; EC90 (Human alphaherpesvirus 3 [17]): > 150 µM; CC50 [18]: > 150 µM; selectivity ratio at 336 h [19]: < 4; selectivity ratio at 336 h [21]: > 10
Nc1nc2c(ncn2COC(CO)CO)c(=O)[nH]1 [GANCICLOVIR] | – | – | – | – | – | – | – | – | – | – | – | – | – | – | 0.86 | 74.2 | > 150 | – | –
CC(CO)(Cn1cnc2c(=O)[nH]c(N)nc21)OCP(=O)(O)O (racemic) | – | 0.14 | 5.37 | 5 | 228 | 5.37 | 300 | 42.1 | 2.4 | 38.1 | > 100 | 3.6 | 32.5 | 7 | – | – | – | – | CC50 at 72 h [14]: 21.6 µM
